Consider four compounds from patent US11083798B2, “Conjugate including peptide molecule capable of self-assembly in cell organelle and pharmaceutical composition for preventing or treating cancer including conjugate” (UNIST (ULSAN NATIONAL INSTITUTE OF SCIENCE AND TECHNOLOGY), priority 2016, dated 2021).

Data set [1] deals with HeLa cells. Briefly: TEM image analysis of mitochondrial dysfunction in treated cells. Format: cell-based, human. The note with it: 20 μM, 3 hours. The method, then: To visualize the mitochondrial dysfunction induced by Mito-FF, a TEM image analysis was conducted with HeLa cells treated with Mito-FF of a concentration of 20 μM for 3 hours in the same manner as in Example 3.

A short description of data set [2]: critical aggregation concentration (CAC) by pyrene excitation method. It is filed as physicochemical. The note with it: pyrene excitation spectrum, I344/I339. As to the method:
In order to verify whether intracellular self-assembly of the Mito-FF according to the present disclosure can occur or not, the CAC of the Mito-FF was measured as follows.
Intensities of emission at 344 nanometers (nm) and 339 nm in a pyrene excitation spectrum differ according to whether pyrene molecules are present as unaggregated individual molecules or as aggregated molecules. The intensities at 344 nm and 339 nm in the excitation spectrum were measured, and the ratio of an intensity in the excitation spectrum at 344 nm to an intensity in the excitation spectrum at 339 nm was calculated. Based on the standard curve shown in FIG. 4, the CAC for Mito-FF was determined.

Data set [3] deals with HeLa cells. Nature of the data set: ROS generation within the cell with dihydroethidium (DHE). Format: cell-based, human. The source says:
The mitochondrial stress may eventually lead to the whole-cell stress. […] DHE dye may intercalate with nuclear DNA and oxidizes to ethidium in the presence of ROS, which may show red fluorescence.
(§1) TEM images of Mito-VV and Mito-FxFx were obtained by observation in the same manner as in Example 3.

In data set [4] the test system is HeLa cells. Briefly: flow cytometric analysis (FACS) with annexin V/PI staining. Format: cell-based, human. The settings on record: 10 μM. As to the method:
For the quantitative analysis of apoptosis, flow cytometric analysis (FACS) was conducted over time with FI-TC annexin V/PI staining assay by using FACSCalibur (available from BD Bioscience), following the protocol of the manufacturer.
In detail, HeLa cells treated with 10 μM of Mito-FF were incubated for 4 hours or 8 hours. Then, FACS analysis was performed thereon.
Background: In flow cytometry, cells or beads pass a laser one at a time.

The test system of data set [5] is HeLa cells. Nature of the data set: ROS generation within mitochondria with Mito SOX Red. It is filed as cell-based, human. The note with it: 6 hours of incubation with HeLa cells. The source says:
The mitochondrial dysfunction may result in excessive production of reactive oxygen species (ROS). To confirm the oxidative stress induced by Mito-FF, generation of ROS within mitochondria was monitored using Mito SOX Red.

Data set [6] is described as follows: self-assembled morphology and size by electron microscopy (TEM). It is filed as physicochemical. The note with it: PBS (10 mM) and water.
The subject of data set [7] is HEK 293T normal cell lines. Briefly: cell viability of normal cell line, Alamar Blue assay. It is filed as cell-based. The note with it: 24 hours of treatment. The method, then: (§2) In order to analyze cell cytotoxicity, the cancer cells were incubated in an incubator including a DMEM medium (available from Gibco) containing 10% of FBS, 1% of penicillin/streptomycin (available from Life Technologies) at a temperature of 37° C. Cell viability thereof was measured 24 hours after cell incubation, by following the protocol of the manufacturer of Alamar Blue assay (available from Thermo Fisher Scientific).
In order to confirm whether apoptosis occurs or not by treatment with Mito-peptides, the cell viability of HEK 293T normal cell lines treated with Mito-FF, Mito-FxFx, Mito-VV, or Mito-GG was measured in the same manner as described above.
(Alamar Blue is a resazurin reagent that responds to reducing activity.)

The subject of data set [8] is HeLa cells. Briefly: FITC annexin/PI staining assay, confocal microscopy. The settings on record: 10 μM, Annexin V positive, PI negative. It is filed as cell-based, human. As to the method:
Mitochondria play a vital role in the initiation of an intrinsic apoptosis cascade. It was anticipated that a Mito-peptide localized in a mitochondrion may self-assemble, thereby causing stress in the mitochondrion and inducing apoptotic mechanisms. To confirm this prediction experimentally, FITC annexin/PI staining assay was performed.
For the FIIC annexin/PI staining assay, HeLa cells were incubated in an incubator including a DMEM medium (available from Gibco) containing 10% of FBS and 1% of penicillin/streptomycin (available from Life Technologies) at a temperature of 37° C. 10 μM of each peptide was incubated for 1, 4, 6, 8, or 10 hours. Following the protocol of the manufacturer, the cells were incubated for 15 minutes at room temperature in the presence of 100 μL of annexin-binding buffer solution, 5 μL of Alexa Fluor 488-conjugated annexin V (V13241 available from Life Technologies), and 1 μL of a 100 μg/mL PI working solution.

The nature of data set [9]: liposomal leakage assay (calcein release). The method, then: To confirm this expectation, a liposomal leakage assay was conducted.
The release of a self-quenching dye such as calcine from liposome is commonly used to test integrity of lipid bilayers. […] Different concentrations of Mito-FF were added to a vesicle-containing solution, and leakage of encapsulated calcein from the vesicle was monitored.

Data set [10] relates to HeLa cells. Nature of the data set: mitochondrial membrane potential depolarization with TMRM. Format: cell-based, human. The note with it: HeLa cells incubated with TMRM and peptide.
Description: Under normal conditions, the inner membrane of mitochondria is in an electrochemically polarized state with a higher concentration of H^+ in the inner membrane space. The electrochemical gradient across the membrane causes H^+ to flow to the inner membrane of mitochondria and this process is coupled with production of adenosine triphosphate (ATP). The external materials which may uncouple this process cause the flow of H^+ to be independent of ATP production. This condition is referred as mitochondrial depolarization, which serves as a preliminary indication of mitochondrial dysfunction.
To examine the effect of Mito-FF on the mitochondrial membrane potential, HeLa cells were incubated with TMRM and Mito-FF. The fluorescence emission from the TMRM was monitored at times lapses of 1 hour, 3 hours, and 6 hours. Red fluorescence of TMRM appears when a mitochondrial membrane is completely polarized, whereas depolarization of a mitochondrial membrane causes disappearance of TMRM red fluorescence.
as §1

Data set [11] has as its system HeLa, MDA-MB-486, MCF10, PC3, SCC7, HEK293T, NIH-3T3. Nature of the data set: cell cytotoxicity, Alamar Blue assay, variety of cell lines. Format: cell-based. The note with it: 24 hours, FIG. 33, read-out: IC50 (cell viability). As to the method:
After the confirmation of the intra-mitochondrial assembly of peptide amphiphile, the toxicity of Mito-peptides toward a variety of cells was analyzed, the cells including cancer cell lines such as HeLa (ATCC, cervical cancer), MDA-MB-486 (ATCC) (mammary cancer) MCF10 (breast cancer), PC3 (ATCC, prostate cancer), SCC7 (ATCC, skin cancer), HEK293T (ATCC), and NIH-3T3 (ATCC).
as §2

The test system of data set [12] is HeLa cells. The settings on record: 24 hours, FIG. 32.

For the compound `NC(=O)[C@H](CCCCNCCCCC[P+](c1ccccc1)(c1ccccc1)c1ccccc1)NC(=O)[C@H](Cc1ccccc1)NC(=O)[C@H](Cc1ccccc1)NC(=O)CCCc1ccc2ccc3cccc4ccc1c2c34` [Mito-FF], the “state of mitochondrion in TEM image” value in the data set with HeLa cells [1] is listed as “severely damaged”. The “critical aggregation concentration (CAC)” value in [2] is 60 µM. Further, the “ROS generation within the cell (DHE)” value with HeLa cells [3] was “significant ROS was generated”. In addition, the “time at which late apoptotic stage started” value in the data set with HeLa cells [4] was more than 10 h. The “total population of the cells that entered an early apoptotic stage” value with HeLa cells [4] (within 2 hours) was “about 81.2%”. In addition, the “ROS generation inside mitochondria (Mito SOX Red)” value with HeLa cells [5] is given as “ROS was generated inside the mitochondria”. In data set [6], the “average length of nanofibers” value came out at 500 nm and the “average width of individual fibers” value was 10 nm. In data set [7], the “toxicity against normal cells” value is reported as “innocuous”. In addition, in the data set with HeLa cells [8], the “time until cells entered an early apoptotic stage” value is not above 6 h. In [9] (concentration below the CAC), the “dye leakage at a concentration below the CAC” value is given as “did not induce any dye leakage”. For the same compound, the “leakage of calcein / dye release from liposome” value in data set [9] (within 24 hours) is reported as 100%. In the data set with HeLa cells [10], the “time until red fluorescence of TMRM disappeared (membrane depolarization)” value was not above 6 h.

The IC50 is the concentration needed to halve the response being measured. In the case of `CC(C)[C@H](NC(=O)CCCc1ccc2ccc3cccc4ccc1c2c34)C(=O)N[C@H](C(=O)N[C@@H](CCCCNCCCCC[P+](c1ccccc1)(c1ccccc1)c1ccccc1)C(N)=O)C(C)C` [Mito-VV], the IC50 in [11] is 10 µM. The “ROS generation within the cell (DHE)” value in the data set with HeLa cells [3] is on record as “ROS generation”.

Regarding pyrene-FFKFxrFxr, the “toxicity in HeLa cells” value with HeLa cells [12] is recorded as “significant toxicity”.

Take `NC(=O)[C@H](CCCCNCCCCC[P+](c1ccccc1)(c1ccccc1)c1ccccc1)NC(=O)[C@H](CC1CCCCC1)NC(=O)[C@H](CC1CCCCC1)NC(=O)CCCc1ccc2ccc3cccc4ccc1c2c34` [Mito-FxFx]: the IC50 in [11] came to 10 µM. In the data set on HeLa cells [3], the “ROS generation within the cell (DHE)” value is recorded as “ROS generation”.
